This is an account of results in patent US8637679B2, “Process for the isolation of organic compounds useful for the treatment of cancer” (Council of Scientific and Industrial Research, priority 2011, dated 2014).

One data set has as its system CEM C7. The experiment in a line: MTT cell viability assay, CEM C7. It is filed as cell-based, human. As to conditions: Homo sapiens; CEM C7, 48 hrs. Here is the method: (§1) Human cervical cancer cell lines (HeLa, ME-180 and SiHa), brain tumor cell lines (U87MG, U373MG, U87MG EGFRvIII, T98G, A172 and LN229), lymphoid leukemia (MOLT-3, MOLT-4, REH and CEMC-7), myloid leukemia (K562), pancreatic cancer (MIAPaCa-2, AsPC-1, Panc-1 and Panc 10.05), lung cancer (A549) and colon cancer (HCT116 and SW480) cell lines from American Type Culture Collection, Manassas, Va., USA were grown in IMDM or RPMI (cell specific) Medium supplemented with 10% fetal bovine serum and 1% antibiotic-antimycotic. Cells were cultured in 37° C. in an atmosphere of 5% CO2.
(§2) Viability of cancer cell lines after treatment as at the indicated times was determined by MTT assay. Briefly, 10,000 cells were plated in triplicate in 96 well plates and incubated for 24 and 48 hours in complete media in presence of varying dose of mahanine (0-50 μM). 100 ug MTT was added in each well. Incubate the plate for 1-4 hours at 37° C. and humidified 5% CO2 atmosphere. Absorbance was recorded at 550 nm with 96 well plate readers.
A general note: Tetrazolium assays rely on reduction of a dye to a coloured formazan, in cell work by metabolically active cells.

A further data set relates to U373MG. The experiment in a line: MTT cell viability assay, U373MG. It is filed as cell-based, human. As to conditions: Homo sapiens, U373 MG, 48 hrs. The protocol: as §1, §2
A further data set concerns U87MG. In words: MTT cell viability assay, U87MG. The class given is cell-based, human. As to conditions: Homo sapiens, U-87 MG, 48 hrs. Here is the method:
as §1, §2

In a further data set the test system is T98G. In words: MTT cell viability assay, T98G. As to conditions: Homo sapiens, 48 hrs. It is filed as cell-based, human. The protocol:
as §1, §2

The subject of another data set is HeLa. The experiment in a line: MTT cell viability assay, HeLa. It is filed as cell-based, human. Here is the method:
as §1, §2

Another data set relates to cancer cell lines. The experiment in a line: MTT assay, pooled cancer cell lines of several cancer types. The class given is cell-based, human. Here is the method:
as §1, §2

The test system of a further data set is Hsp90-Cdc37 complex. In words: Co-immunoprecipitation of Hsp90-Cdc37 complex. It is filed as cell-based, human. Here is the method:
Different human cancer cells (1×10^6 cells) were incubated with complete medium alone or with different dose of Mahanine (10-20 μM) as indicated. Cells were detached using trypsin-EDTA solution. They were collected by centrifugation at 1500 g for 10 mins and lysed by sonication. Aliquots containing 60 μg total cellular protein were separated by 10% SDS-PAGE and transferred to nitrocellulose membrane (MILIPORE, Bedford, Mass., USA). Membrane was blocked with blocking buffer for 1 hour at room temperature and probed with desired primary antibody Hsp90, Hsp70, Hsp40, p23, HOP, Cdc37, B-Raf, Stat-3, Bcl-xl, Akt, PARP, β-actin (Cell signaling technology, USA) and caspase-3 (Santa Cruz, USA), caspase9, cytochrome c (cell signaling technology, USA) for overnight at 4° C. followed by HRP conjugated secondary antibody and detected by ECL. For the detection of association of the Hsp90-Cdc37, Hsp90-p23 and Hsp90-HOP, total cell lysate (400 μg) was treated with anti-Hsp-90 antibody (1:100 dilutions) and incubated overnight at 4° C. The chaperonic complex was resolved by SDS-PAGE (10%), transferred and probed separately with anti-Cdc37, anti-HOP, anti-p23 and anti-Hsp-90 antibodies. In the few immunoprecipitation experiments anti-Cdc37 used as precipitating antibody and Hsp90 was used as detection antibody. For the proteasomal inhibition assay cells were pretreated with 10 μM MG132 for 1 hr and then cells are exposed in 20 μM mahanine for 24 hrs. For proteasomal inhibition assay at 6 hrs incubation in MIAPaCa-2, cells were pre-incubated with 20 μM MG132 for 1 hr and then cells were exposed in 30 μM mahanine.

The subject of the next data set is BxPC-3. The experiment in a line: Scratch-wound haptotaxis assay, BxPC-3. It is filed as cell-based, human. As to conditions: BxPC-3, highest treated cells, 6 hrs. The protocol: Highly and moderately invasive pancreatic cancer cell lines, MIAPaCa-2 and BxPC3 (1×10^6/ml/well) were cultured to >90% confluence in 6 well plate. Consequently, cell were rinsed with PBS and starved in low serum media (2 ml containing 0.5%-0.1% serum in RPMI-1640 for MIAPaCa-2 and BxPC-3) for overnight. On the following day, three separate scratch-wounds were made through the confluent cells. Scratched plate was rinsed with PBS and replaced with serum starved media containing successive doses of mahanine or EtOH for 6 hrs. Picture was taken by using phase contrast at 10× accordingly.

A further data set relates to MIAPaCa-2. The experiment in a line: In vitro colony formation on matrigel. The class given is cell-based, human.
A short description of another data set: In vivo toxicity in mice. The protocol: Animals were examined for 1 month after the administration of acute toxic dose (150 mg/kg/day); there was no change in behavior, feeding habit, total body mass and in number of biochemical and haematological parameters.

Structures are written as SMILES. Like-named read-outs stand apart in the source and are kept apart here. Bounds are passed on as bounds.

What is called IC50 is the point on the concentration scale where inhibition reaches its midpoint. As usually defined, the inhibition is the percentage by which the read-out fell short of the control. Turning to `CC(C)=CCCC1(C)C=Cc2c(c(C)cc3c2[nH]c2cc(O)ccc23)O1` (centres unmarked) [Mahanine, mahanine], the IC50 in the data set with CEM C7 is 10.2 ± 0.1 µM; in the data set with U373MG it was 16.8 ± 0.6 µM; in the data set on U87MG, 13.4 ± 0.4 µM; in the data set with T98G, 16.1 ± 0.9 µM; in the data set with HeLa (48 hrs), 13.2 ± 1.1 µM; in the data set on HeLa (Homo sapiens, 48 h) it was 10.9 µM. Moreover, the IC50 with cancer cell lines (Homo sapiens, Pancreatic cancer cell, 48 h, range, 48 hr treatment, read-out: IC50, glioma, cervical and pancreatic cancer cell lines) is 11 to 14 µM; in the data set on cancer cell lines (range over glioma and cervical cancer cell lines, 48 hr, listed as 1b, read-out: IC50, glioma and cervical cancer cells), 30 to 50 µM; in the data set with cancer cell lines (range over glioma and cervical cancer cell lines, 48 hr, read-out: IC50, glioma and cervical cancer cells), 12 to 17 µM. Further, in the data set with cancer cell lines (Homo sapiens, mahanine at 20 μM, read-out: inhibition of cancer cells), the inhibition at 20 µM was 75 to 85%. Besides, in the data set on Hsp90-Cdc37 complex (HeLa, 24 hr), the “dose needed to initiate dissociation of Hsp90-Cdc37” value stood at 17.5 µM. Also, in the data set on Hsp90-Cdc37 complex (MIAPaCa2, 24 hr), the “dose adequate to begin Hsp90-Cdc37 dissociation” value turned out to be 12.5 µM. Moreover, the “dose showing significant decrease of association of Hsp90-Cdc37 complex” value in the data set on Hsp90-Cdc37 complex (U87MG, 24 hr) stood at 15 µM. In the data set with BxPC-3, the “wound closure / migratory cells” value is recorded as under 5%. Besides, the colony formation result in the data set on MIAPaCa-2 (15 μM, within 24 hrs) was “absolutely inhibited”; in the data set with MIAPaCa-2 (20 μM, after 72 hrs), “could not colonize”. For the same compound, the inhibition at 10 µM in the data set on MIAPaCa-2 (Homo sapiens, MIA PaCa-2, 10 μM, within 24 hrs) is about 20%. In addition, in the data set “In vivo toxicity in mice” (mouse, in vivo), the Creatinine stood at 3.72 mg/dL. Moreover, in “In vivo toxicity in mice” (mouse, in vivo), the Hb was 13.64 gm/dl. In the data set “In vivo toxicity in mice” (mouse, in vivo), this compound showed an SGOT of 174.0 Unit/ml. In the data set “In vivo toxicity in mice” (mouse, in vivo), this compound showed an SGPT of 34.7 Unit/ml. Besides, the Urea in “In vivo toxicity in mice” (mouse, in vivo) was 48.6 mg/dL. Also, the tolerated dose in “In vivo toxicity in mice” (normal Balb/c mice, consecutive 20 days) is reported as 150 mg/kg/day.
